pIC50: −log10 of the molar value.
Molecular target: Dipeptidyl peptidase 4 (Homo sapiens) (UniProt P27487)
Sequence (P27487 whole entry, looked up): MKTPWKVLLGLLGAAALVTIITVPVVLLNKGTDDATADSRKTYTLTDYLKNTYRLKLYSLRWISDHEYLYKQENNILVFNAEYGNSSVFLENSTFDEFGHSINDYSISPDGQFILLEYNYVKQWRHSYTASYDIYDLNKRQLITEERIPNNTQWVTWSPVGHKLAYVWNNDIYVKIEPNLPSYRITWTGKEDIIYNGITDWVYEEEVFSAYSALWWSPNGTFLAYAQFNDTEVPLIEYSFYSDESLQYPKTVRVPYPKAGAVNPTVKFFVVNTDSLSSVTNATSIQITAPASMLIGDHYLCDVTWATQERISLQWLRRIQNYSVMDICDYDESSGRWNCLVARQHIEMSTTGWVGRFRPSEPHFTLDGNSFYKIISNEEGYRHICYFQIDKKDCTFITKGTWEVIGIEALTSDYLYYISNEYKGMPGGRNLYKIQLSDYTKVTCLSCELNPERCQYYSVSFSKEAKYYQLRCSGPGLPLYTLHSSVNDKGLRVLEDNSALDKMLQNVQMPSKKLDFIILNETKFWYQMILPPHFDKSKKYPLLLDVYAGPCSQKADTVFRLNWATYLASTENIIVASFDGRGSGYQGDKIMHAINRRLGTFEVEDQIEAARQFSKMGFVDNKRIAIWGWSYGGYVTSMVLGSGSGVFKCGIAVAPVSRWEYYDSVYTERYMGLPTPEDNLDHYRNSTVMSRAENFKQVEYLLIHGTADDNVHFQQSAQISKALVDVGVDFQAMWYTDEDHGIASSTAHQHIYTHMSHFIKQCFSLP
Description: Inhibition of human seminal fluid DPP4

`NC(=O)c1cccc(CN2CC3CN(C(=O)C[C@H](N)Cc4cc(F)c(F)cc4F)CCN3C2=O)c1` (stereo partly specified) showed a pIC50 of 7.11.
